Read-outs that look alike come from different tables or passages of the source.
Key:
Type in all cases: cell-based
[1] = system: HIV-1 (strain LAV-1); test: Inhibition of HIV-1 replication in human PBMC (supernatant RT activity); conditions: Human immunodeficiency virus 1, PBMC
Method: Cells: Human peripheral blood mononuclear cells (PBMC) from healthy HIV-1 seronegative and hepatitis B virus seronegative donors were isolated by Ficoll-Hypaque discontinuous gradient centrifugation at 1,000×g for 30 minutes, washed twice in phosphate-buffered saline (pH 7.2; PBS), and pelleted at 300×g for 10 minutes. Before infection, the cells were stimulated by phytohemagglutinin (PHA) at a concentration of 16.7 μg/ml, and 4 mM sodium bicarbonate buffer.
Retrovirus: HIV-1 (strain LAV-1) was obtained from Dr. P. Feorino (Centers for Disease Control, Atlanta, Ga.). The virus was propagated in human PBMC using RPMI 1640 medium, as described previously by McDougal, et al., (“Immunoassay for the detection and quantitation of infectious human retrovirus, lymphadenopathy-associated virus (LAV),” J. Immun. Meth. 76, 171-183, 1985) without PBA or fungizone and supplemented with 7% (v/v) interleukin-2 (Advanced Biotechnologies, Silver Spring, Md.), 7 μg/ml DEAE-dextran (Pharmacia, Uppsala, Sweden), and 370 U/ml anti-human leukocyte (alpha) interferon (ICN, Lisle, Ill.). Virus obtained from cell-free culture supernatant was titrated and stored in aliquots at −70° C. until use.
Inhibition of Virus Replication in Human PBMC: Uninfected PHA-stimulated human PBMC were uniformly distributed among 25 cm^2 flasks to give a 5 ml suspension containing about 2×10^6 cells/ml. Suitable dilutions of virus were added to infect the cultures. The mean reverse transcriptase (RT) activity of the inocula was 50,000 dpm/ml corresponding to about 100 TCID50, as determined by Groopman, et al., (1987), “Characterization of Serum Neutralization Response to the Human Immunodeficiency Virus (HIV),” AIDS Res. Human Retro. 3, 71-85. The drugs, at twice their final concentrations in 5 ml of RPMI 1640 medium (supplemented as described above), were added to the cultures. Uninfected and untreated PBMC at equivalent cell densities were grown in parallel as controls. The cultures were maintained in a humidified 5% CO2-95% air incubator at 37° C. for six days after infection at which point all cultures were sampled for supernatant RT activity.
RT Activity Assay: A […] aliquot of supernatant from each culture was clarified of cells at 300×g for 10 minutes. […]
The RT assay was performed in 96-well microtiter plates, as described by Spira, et al. (1987), “Micromethod for Assaying the Reverse Transcriptase of LAV-HTLV-III/Lymphadenopathy-Associated Virus,” J. Clin. Microbiol. […] Four ml of scintillation fluid (Econofluor, NEN Research Products, Boston, Mass.) were added and the amount of radioactivity in each sample was determined using a Packard Tri-Carb liquid scintillation analyzer (model 2,000CA). […]

[2] = system: HSV-2 (G strain); test: HSV plaque reduction assay in Vero cells, HSV-2; conditions: read-out: Antiviral Effect: EC50 HSV-2
Method: (§1) HSV Preparation: Confluent HEp-2 cells, in a roller bottle (Falcon, 850 cm^2), were infected at an input multiplicity of 0.01 PFU per cell (to minimize production of defective viruses). During the two-hour absorption period, the cells were exposed to the virus inoculum diluted in absorption buffer (10 ml PBS containing 1% newborn calf serum and 0.1% glucose). The virus inoculum was then removed and replaced with Hanks' Minimum Essential Medium (MEM) containing 2% inactivated newborn calf serum, penicillin (100 U/ml) and streptomycin (100 μg/ml) (P and S), sodium bicarbonate (2 g/L) and HEPES (25 mM) (maintenance medium). The infected cells were incubated at 37° C. for 3 to 4 days, until the cells could be easily shaken from the plastic surface of the culture bottles. The cells were then collected by centrifugation, suspended in a small volume of spent culture fluid (5 ml per 2×10^8 cells) and sonicated 3 times for one min on ice. The disrupted cells were centrifuged (2,000 g for 15 min at 4° C. and the supernatant was diluted with an equal volume of sterile skimmed milk (as stabilizer) and aliquots were frozen at −70° C.
(§2) HSV Plaque Reduction Assay: Near confluent Vero (African Green Monkey) cells in 6-well plates were infected with 100 μl virus diluted in absorption buffer to give 100-200 plaques per well. The plates were then incubated at 37° C. for 1 hour with intermittent rocking every 15 minutes. The inoculum was aspirated and the compounds at different concentrations (dissolved in maintenance medium) were added to replicate wells. For these assays, 0.1% pooled human gamma globulin was included in the media. The plates were placed in 5% CO2-95% air incubator and the plaques were allowed to develop for 48 h prior to fixation (buffered 10% Formalin acetate), staining (0.5% crystal violet in 20% EtOH/H2O) and enumeration. The degree of inhibition (percent plaques of control) was calculated by counting the mean plaque counts for the different drug dilutions. […] For routine antiviral drug screening, we used the F strain of HSV-1 and the G strain of HSV-2 (Ejercito, et al., “Characterization of Herpes Simplex virus Strains Differing in Their Effect on Social Behavior of Infected Cells,” J. Gen. Virol. 2, 357-364 (1968)). […] Acyclovir (ACV) was used as a positive control for the studies on HSV.
(§3) Median-Effect Method: EC50 and IC50 values were obtained by analysis of the data using the median-effect equation (Chou, T., et al., “Quantitative Analysis of Dose-Effect Relationships: The Combined Effects of Multiple Drugs or Enzyme Inhibitors,” Adv. Enz. Regul. 22, 27-55 (1984).

[3] = system: HSV-1 (F strain); test: HSV plaque reduction assay in Vero cells, HSV-1; conditions: read-out: Antiviral Effect: EC50 HSV-1
Method: as §1, §2, §3

Structure (SMILES): Nc1nc2c(ncn2COCCO)c(=O)[nH]1 [ACV, Acyclovir]
- EC50 ([1]; light, read-out: Antiviral Effect: EC50 HIV-1): > 100 µM
- EC50 ([2]; Human alphaherpesvirus 2, Vero, dark): 0.16 µM
- EC50 ([2]; Human alphaherpesvirus 2, Vero, light): 0.51 µM
- EC50 ([3]; Human alphaherpesvirus 1, Vero, dark): 0.013 µM
- EC50 ([3]; Human alphaherpesvirus 1, Vero, light): 0.022 µM

Structure (SMILES): CN(C)c1ccc2nc3ccc(N(C)C)cc3[s+]c2c1.[Cl-] [MB, 3,7-Bis(dimethylamino)phenothiazin-5-ium chloride]
- EC50 ([1]; read-out: Antiviral Effect: EC50 HIV-1, dark): 0.14 µM
- EC50 ([1]; read-out: Antiviral Effect: EC50 HIV-1, light): 0.028 µM
- EC50 ([2]; Human alphaherpesvirus 2, Vero): ≥ 10 µM
- EC50 ([2]; dark): ≥ 10 µM
- EC50 ([3]; Human alphaherpesvirus 1, Vero): ≥ 10 µM
- EC50 ([3]; dark): ≥ 10 µM
